Literature values, collected in patent US6794370B2, “Method for treating cancer using camptothecin derivatives and 5-fluorouracil” (priority 1999, dated 2004).
Like-named read-outs stand apart in the source and are kept apart here.

Columns and labels:
colorectal cancer [1] = conditions: metastatic disease, compared to no antitumour therapy
colorectal cancer [2] = system: colorectal cancer
[3] = system: metastatic colorectal cancer; conditions: 125 mg/m^2 intravenously
colorectal cancer [4] = conditions: compared with supportive care only

Compound | survival time (colorectal cancer [1]) | median survival time (colorectal cancer [2]; bolus administration) | response rate (colorectal cancer [2]; bolus administration) | median survival time (colorectal cancer [2]; infusional administration) | response rate (colorectal cancer [2]; infusional administration) | median survival ([3]; first of two studies) | response rate ([3]; first of two studies) | median survival ([3]; second of two studies) | response rate ([3]; second of two studies) | quality of life (colorectal cancer [4]) | survival (colorectal cancer [4])
O=c1[nH]cc(F)c(=O)[nH]1 [5-FU, 5-fluorouracil] | 11 months | 11.3 months | 14% | 12.1 months | 22% |  |  |  |  |  | 
Irinotecan [CPT-11] |  |  |  |  |  | 12.1 months | 32% | 11.8 months | 26% | better quality of life | longer survival
